According to ChEMBL document CHEMBL5154675, “Design, Synthesis, and Biological Evaluation of 1-(Indolizin-3-yl)ethan-1-ones as CBP Bromodomain Inhibitors for the Treatment of Prostate Cancer” (J Med Chem, 2022):

What was measured:
[1] = target: T1, CREB-binding protein (Homo sapiens, UniProt Q92793); assay: Inhibition of His6-tagged human CBP bromodomain (1081 to 1197 residues) expressed in Escherichia coli BL21 (DE3) incubated for 30 mins by HTRF assay
Target sequence in this assay (Q92793 whole entry, the tested form may be a part): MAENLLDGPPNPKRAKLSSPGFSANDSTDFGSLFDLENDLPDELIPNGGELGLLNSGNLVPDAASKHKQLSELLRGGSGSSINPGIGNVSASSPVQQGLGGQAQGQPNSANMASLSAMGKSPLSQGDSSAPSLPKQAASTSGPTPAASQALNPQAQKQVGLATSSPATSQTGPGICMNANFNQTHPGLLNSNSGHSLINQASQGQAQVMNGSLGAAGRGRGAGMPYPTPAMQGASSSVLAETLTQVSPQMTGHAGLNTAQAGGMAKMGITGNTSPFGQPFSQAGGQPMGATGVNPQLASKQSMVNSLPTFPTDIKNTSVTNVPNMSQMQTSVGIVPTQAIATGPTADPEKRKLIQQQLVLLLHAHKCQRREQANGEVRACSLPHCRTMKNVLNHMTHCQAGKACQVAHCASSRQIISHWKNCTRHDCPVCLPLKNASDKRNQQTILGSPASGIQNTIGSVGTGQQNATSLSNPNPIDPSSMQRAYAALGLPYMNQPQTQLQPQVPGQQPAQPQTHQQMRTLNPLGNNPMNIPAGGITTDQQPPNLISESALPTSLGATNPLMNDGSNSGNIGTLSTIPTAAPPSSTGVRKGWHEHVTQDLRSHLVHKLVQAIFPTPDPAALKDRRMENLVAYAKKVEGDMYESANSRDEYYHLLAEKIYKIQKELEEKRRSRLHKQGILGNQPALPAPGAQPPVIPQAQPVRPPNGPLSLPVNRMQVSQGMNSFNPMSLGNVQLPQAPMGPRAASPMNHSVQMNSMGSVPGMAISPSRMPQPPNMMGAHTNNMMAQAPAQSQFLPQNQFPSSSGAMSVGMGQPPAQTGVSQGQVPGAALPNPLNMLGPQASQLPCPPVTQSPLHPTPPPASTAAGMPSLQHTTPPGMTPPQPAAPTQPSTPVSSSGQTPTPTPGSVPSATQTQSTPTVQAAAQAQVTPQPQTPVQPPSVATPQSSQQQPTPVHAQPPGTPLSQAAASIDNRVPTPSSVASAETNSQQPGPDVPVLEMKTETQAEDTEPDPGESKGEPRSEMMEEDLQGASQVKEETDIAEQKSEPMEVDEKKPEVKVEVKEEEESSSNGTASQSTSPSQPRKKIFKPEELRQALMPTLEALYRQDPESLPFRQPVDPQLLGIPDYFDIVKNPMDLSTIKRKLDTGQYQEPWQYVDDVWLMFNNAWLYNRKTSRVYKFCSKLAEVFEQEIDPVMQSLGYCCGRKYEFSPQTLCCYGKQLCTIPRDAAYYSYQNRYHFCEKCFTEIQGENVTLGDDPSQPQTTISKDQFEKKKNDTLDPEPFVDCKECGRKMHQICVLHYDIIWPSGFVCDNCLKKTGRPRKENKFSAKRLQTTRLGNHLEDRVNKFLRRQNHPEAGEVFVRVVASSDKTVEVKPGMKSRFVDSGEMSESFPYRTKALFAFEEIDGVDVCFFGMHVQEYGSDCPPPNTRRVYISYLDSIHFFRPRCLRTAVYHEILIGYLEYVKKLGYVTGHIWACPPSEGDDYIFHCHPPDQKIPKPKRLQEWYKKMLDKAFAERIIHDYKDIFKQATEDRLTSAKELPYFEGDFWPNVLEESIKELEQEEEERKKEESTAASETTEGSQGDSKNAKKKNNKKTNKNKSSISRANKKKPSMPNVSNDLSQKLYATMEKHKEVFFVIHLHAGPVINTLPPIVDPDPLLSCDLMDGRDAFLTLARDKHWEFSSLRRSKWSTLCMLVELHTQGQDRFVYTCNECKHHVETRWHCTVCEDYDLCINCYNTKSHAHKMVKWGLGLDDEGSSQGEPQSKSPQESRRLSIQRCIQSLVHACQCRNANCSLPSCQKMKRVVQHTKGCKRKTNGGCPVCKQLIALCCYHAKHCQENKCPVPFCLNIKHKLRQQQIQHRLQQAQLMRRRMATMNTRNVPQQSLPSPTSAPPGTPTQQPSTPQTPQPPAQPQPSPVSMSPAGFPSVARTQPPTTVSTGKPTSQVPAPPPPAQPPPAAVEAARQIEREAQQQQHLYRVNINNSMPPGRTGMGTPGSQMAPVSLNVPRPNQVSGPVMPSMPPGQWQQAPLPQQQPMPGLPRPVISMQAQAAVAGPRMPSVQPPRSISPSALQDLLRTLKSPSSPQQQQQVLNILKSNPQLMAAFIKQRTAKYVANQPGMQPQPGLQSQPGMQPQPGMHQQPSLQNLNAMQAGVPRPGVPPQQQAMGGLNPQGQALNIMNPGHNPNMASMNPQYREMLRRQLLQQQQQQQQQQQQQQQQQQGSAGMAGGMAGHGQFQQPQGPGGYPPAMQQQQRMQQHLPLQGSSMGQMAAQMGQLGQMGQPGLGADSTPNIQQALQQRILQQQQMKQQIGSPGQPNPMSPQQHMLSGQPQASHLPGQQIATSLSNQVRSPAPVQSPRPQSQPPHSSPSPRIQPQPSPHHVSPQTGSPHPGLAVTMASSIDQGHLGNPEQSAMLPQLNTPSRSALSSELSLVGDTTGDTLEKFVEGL

[2] = target: T1, CREB-binding protein; settings: dose 200.0 µM, time 30.0 min
Target sequence in this assay (Q92793 2-2442 limits assumed): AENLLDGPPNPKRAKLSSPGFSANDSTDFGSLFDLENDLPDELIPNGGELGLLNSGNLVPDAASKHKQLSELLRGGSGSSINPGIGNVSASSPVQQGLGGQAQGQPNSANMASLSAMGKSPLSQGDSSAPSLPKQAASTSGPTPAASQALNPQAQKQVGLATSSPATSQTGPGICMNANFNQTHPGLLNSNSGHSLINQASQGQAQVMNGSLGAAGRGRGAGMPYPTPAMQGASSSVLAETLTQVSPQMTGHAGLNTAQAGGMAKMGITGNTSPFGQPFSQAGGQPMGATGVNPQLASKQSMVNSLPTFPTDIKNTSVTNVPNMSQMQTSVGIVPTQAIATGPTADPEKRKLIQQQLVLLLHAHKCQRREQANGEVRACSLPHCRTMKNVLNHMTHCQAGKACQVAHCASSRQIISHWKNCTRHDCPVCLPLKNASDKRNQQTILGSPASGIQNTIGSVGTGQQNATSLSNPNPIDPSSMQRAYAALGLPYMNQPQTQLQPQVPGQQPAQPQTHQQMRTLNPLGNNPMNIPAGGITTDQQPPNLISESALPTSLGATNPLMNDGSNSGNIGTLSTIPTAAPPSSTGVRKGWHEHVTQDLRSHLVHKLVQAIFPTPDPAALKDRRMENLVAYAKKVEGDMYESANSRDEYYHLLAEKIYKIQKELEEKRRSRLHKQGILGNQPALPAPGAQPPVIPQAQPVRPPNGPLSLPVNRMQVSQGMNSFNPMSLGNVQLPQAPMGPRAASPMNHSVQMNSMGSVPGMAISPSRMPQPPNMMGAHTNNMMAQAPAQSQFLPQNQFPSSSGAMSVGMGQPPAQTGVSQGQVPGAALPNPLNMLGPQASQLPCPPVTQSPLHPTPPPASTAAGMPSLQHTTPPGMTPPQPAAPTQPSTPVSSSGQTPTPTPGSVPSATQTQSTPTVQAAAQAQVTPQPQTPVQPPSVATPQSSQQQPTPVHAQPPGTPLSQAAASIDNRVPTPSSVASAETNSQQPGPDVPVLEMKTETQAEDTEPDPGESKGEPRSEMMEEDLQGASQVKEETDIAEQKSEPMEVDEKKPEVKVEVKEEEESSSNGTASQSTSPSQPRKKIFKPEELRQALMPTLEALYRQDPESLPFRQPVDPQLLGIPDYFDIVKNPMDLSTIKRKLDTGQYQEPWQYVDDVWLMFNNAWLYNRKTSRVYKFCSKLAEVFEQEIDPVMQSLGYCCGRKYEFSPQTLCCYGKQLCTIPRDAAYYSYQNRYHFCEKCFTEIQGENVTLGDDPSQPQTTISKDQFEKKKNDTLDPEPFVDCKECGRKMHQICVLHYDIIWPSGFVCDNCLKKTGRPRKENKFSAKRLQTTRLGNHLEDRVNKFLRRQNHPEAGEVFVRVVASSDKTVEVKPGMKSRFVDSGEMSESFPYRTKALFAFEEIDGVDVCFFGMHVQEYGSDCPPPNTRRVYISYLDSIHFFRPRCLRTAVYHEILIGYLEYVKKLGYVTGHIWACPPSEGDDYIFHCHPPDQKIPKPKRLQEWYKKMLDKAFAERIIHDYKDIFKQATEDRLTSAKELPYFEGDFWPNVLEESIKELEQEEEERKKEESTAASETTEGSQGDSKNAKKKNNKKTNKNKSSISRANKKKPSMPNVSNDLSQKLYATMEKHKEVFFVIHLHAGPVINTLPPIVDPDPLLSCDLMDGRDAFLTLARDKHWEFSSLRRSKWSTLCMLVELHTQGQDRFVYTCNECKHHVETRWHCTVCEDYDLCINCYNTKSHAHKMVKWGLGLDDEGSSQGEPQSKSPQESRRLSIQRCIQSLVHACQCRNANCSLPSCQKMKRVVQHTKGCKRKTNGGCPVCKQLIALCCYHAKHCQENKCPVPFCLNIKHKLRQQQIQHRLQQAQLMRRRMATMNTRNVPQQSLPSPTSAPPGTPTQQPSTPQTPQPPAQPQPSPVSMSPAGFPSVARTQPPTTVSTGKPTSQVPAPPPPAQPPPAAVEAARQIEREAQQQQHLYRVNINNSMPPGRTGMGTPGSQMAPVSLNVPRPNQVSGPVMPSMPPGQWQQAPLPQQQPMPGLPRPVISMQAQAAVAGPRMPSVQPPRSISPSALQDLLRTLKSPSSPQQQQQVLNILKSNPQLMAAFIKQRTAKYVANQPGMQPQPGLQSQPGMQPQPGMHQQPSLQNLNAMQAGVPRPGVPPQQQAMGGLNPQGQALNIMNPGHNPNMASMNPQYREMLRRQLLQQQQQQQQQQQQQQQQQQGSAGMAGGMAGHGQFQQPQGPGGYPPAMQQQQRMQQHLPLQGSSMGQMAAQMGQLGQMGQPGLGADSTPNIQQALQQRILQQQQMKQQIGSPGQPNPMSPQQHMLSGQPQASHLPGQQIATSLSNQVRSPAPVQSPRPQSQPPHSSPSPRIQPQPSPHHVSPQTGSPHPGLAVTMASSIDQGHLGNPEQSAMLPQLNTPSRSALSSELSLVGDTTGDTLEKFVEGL

[3] = system: LNCaP C4-2B; assay: Antiproliferative activity against human LNCaP C4-2B cells assessed as inhibition of cell growth by Celltiter-Glo assay; type: functional, cell-based
[4] = Half life in rat liver microsomes at 1 uM incubated for 45 mins in presence of NADPH by LC-MS/MS analysis; type: ADME, Microsome
[5] = Hepatic clearance in rat liver microsomes at 1 uM incubated for 45 mins in presence of NADPH by LC-MS/MS analysis; type: ADME, Microsome
[6] = Intrinsic clearance in rat liver microsomes at 1 uM incubated for 45 mins in presence of NADPH by LC-MS/MS analysis; type: ADME, Microsome; settings: read-out: CLH
[7] = target: SWI/SNF-related matrix-associated actin-dependent regulator of chromatin subfamily A member 2 (Homo sapiens) (UniProt P51531); settings: dose 200.0 µM, time 30.0 min
[8] = target: Chromatin remodeling regulator CECR2 (Homo sapiens) (UniProt Q9BXF3); settings: dose 200.0 µM, time 30.0 min
[9] = target: T2, Bromodomain-containing protein 4 (Homo sapiens, UniProt O60885); settings: dose 200.0 µM, time 30.0 min
[10] = system: CWR22R; assay: Antiproliferative activity against human 22Rv1 cells assessed as cell growth inhibition by Celltiter-Glo assay; type: functional, cell-based
[11] = system: LNCaP; assay: Antiproliferative activity against human LNCaP cells assessed as cell growth inhibition by Celltiter-Glo assay; type: functional, cell-based
[12] = target: Bromodomain adjacent to zinc finger domain protein 2B (Homo sapiens) (UniProt Q9UIF8); settings: dose 200.0 µM, time 30.0 min
[13] = target: PH-interacting protein (Homo sapiens) (UniProt Q8WWQ0); settings: dose 200.0 µM, time 30.0 min
[14] = target: T3, Bromodomain-containing protein 2 (Homo sapiens, UniProt P25440); settings: dose 200.0 µM, time 30.0 min
[15] = target: T4, Bromodomain-containing protein 3 (Homo sapiens, UniProt Q15059); settings: dose 200.0 µM, time 30.0 min
[16] = target: T5, Bromodomain testis-specific protein (Homo sapiens, UniProt Q58F21); settings: dose 200.0 µM, time 30.0 min
[17] = target: T5, Bromodomain testis-specific protein; settings: dose 200.0 µM, time 30.0 min; remark: listed apart in the source
[18] = target: T6, Bromodomain-containing protein 9 (Homo sapiens) (UniProt Q9H8M2); settings: dose 200.0 µM, time 30.0 min
T6 sequence (whole entry): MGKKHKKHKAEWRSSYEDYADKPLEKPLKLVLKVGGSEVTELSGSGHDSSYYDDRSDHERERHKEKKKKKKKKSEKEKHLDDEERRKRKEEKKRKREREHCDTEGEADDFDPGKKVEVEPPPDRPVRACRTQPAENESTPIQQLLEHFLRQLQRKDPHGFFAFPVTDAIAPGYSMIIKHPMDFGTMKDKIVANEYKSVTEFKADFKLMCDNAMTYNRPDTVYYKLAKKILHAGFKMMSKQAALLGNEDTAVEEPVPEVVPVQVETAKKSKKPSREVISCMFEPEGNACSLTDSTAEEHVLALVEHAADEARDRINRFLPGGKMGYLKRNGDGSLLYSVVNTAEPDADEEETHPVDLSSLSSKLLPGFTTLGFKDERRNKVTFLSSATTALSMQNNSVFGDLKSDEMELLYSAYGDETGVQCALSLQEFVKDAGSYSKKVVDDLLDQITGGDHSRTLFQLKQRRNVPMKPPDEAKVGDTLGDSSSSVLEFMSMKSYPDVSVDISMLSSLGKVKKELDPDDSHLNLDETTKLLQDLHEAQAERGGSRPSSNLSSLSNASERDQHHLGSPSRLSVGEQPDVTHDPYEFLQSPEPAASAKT

[19] = target: Histone acetyltransferase p300 (Homo sapiens) (UniProt Q09472); settings: dose 200.0 µM, time 30.0 min
[20] = target: T3, Bromodomain-containing protein 2; settings: dose 200.0 µM, time 30.0 min; remark: listed apart in the source
[21] = target: T2, Bromodomain-containing protein 4; settings: dose 200.0 µM, time 30.0 min; remark: listed apart in the source
[22] = target: T1, CREB-binding protein; assay: Binding affinity to His6-tagged human CBP bromodomain (1081 to 1197 residues) expressed in Escherichia coli BL21 (DE3) assessed as dissociation constant by ITC analysis
Target sequence in this assay (Q92793 whole entry, the tested form may be a part): as the sequence (Q92793 whole entry, the tested form may be a part) above

[23] = target: T4, Bromodomain-containing protein 3; settings: dose 200.0 µM, time 30.0 min; remark: listed apart in the source
[24] = target: Histone acetyltransferase KAT2B (Homo sapiens) (UniProt Q92831); settings: dose 200.0 µM, time 30.0 min
[25] = Metabolic stability in rat liver microsomes assessed as parent compound remaining at 1 uM incubated for 45 mins in presence of NADPH by LC-MS/MS analysis; type: ADME, Microsome; settings: read-out: Stability
[26] = Apparent permeability across basolateral to apical side in human Caco-2 cells assessed as drug recovery at 10 uM measured after 2 hrs by LC-MS/MS analysis; type: ADME, cell-based; settings: read-out: Drug recovery
[27] = Apparent permeability across apical to basolateral side in human Caco-2 cells assessed as drug recovery at 10 uM measured after 2 hrs by LC-MS/MS analysis; type: ADME, cell-based; settings: read-out: Drug recovery
[28] = Apparent permeability across apical to basolateral side in human Caco-2 cells at 10 uM measured after 2 hrs by LC-MS/MS analysis; type: ADME, cell-based
[29] = in vitro; settings: rat, liver microsomes
Description: Hepatic extraction ratio in rat liver microsomes at 1 uM incubated for 45 mins in presence of NADPH by LC-MS/MS analysis

Row | SMILES | IC50 [1] | ΔTm [2] | IC50 [3] | other results
1 | CNc1ccn2c(C(C)=O)cc(C(=O)Nc3cc(CO)cc(-c4cnn(C)c4)c3F)c2c1 | 2.1 nM | 9.9 °C | > 50000 nM | 
2 | O=C(c1ccc(F)cc1)C1CCN(CCn2c(=O)[nH]c3ccccc3c2=O)CC1 [KETANSERIN] |  |  |  | half-life at 1 µM [4]: 15.6 min; CLhep predicted at 1 µM [5]: 41 mL/min/kg; CLint scaled at 1 µM [6]: 159 mL/min/kg
3 | C[C@@H]1CC(=O)Nc2cccc(-c3ccc4c(c3)c(-c3cnn(C)c3)nn4C)c2N1 | 14 nM | 14.3 °C | 3350 nM | ΔTm [7]: -0.3 °C; ΔTm [8]: -0.2 °C; ΔTm [9]: 5 °C; IC50 [10]: 3130 nM; IC50 [11]: 650 nM; ΔTm [12]: -0.2 °C; ΔTm [13]: 0 °C; ΔTm [14]: 1 °C; ΔTm [15]: 1.5 °C; ΔTm [16]: 1.8 °C; ΔTm [17]: -0.5 °C; ΔTm [18]: 7 °C; ΔTm [19]: 15.5 °C; ΔTm [20]: 1.3 °C; ΔTm [21]: 0 °C; Kd [22]: 68 nM; ΔTm [23]: 1 °C; ΔTm [24]: -0.2 °C
4 | Cn1cc(-c2cc(CO)cc(NC(=O)c3cc(C(=O)C4CC4)n4ccc(O)cc34)c2F)cn1 |  | 2.1 °C |  | 
5 | Cn1cc(-c2cc(CO)cc(NC(=O)c3cc(C(=O)C(C)(C)C)n4ccc(O)cc34)c2F)cn1 |  | 0.9 °C | 33900 nM | 
6 | CNC(=O)c1cc(C(=O)Nc2cc(CO)cc(-c3cnn(C)c3)c2F)c2cc(O)ccn12 |  | 2.4 °C |  | 
7 | COc1ccn2c(C(C)=O)cc(C(=O)Nc3cc(Cl)cc(-c4cnn(C)c4)c3F)c2c1 | 55.2 nM | 6 °C | 9280 nM | 
8 | CCC(=O)c1cc(C(=O)Nc2cc(CO)cc(-c3cnn(C)c3)c2F)c2cc(O)ccn12 | 78.5 nM | 11.1 °C | 34900 nM | 
9 | COC(=O)c1cc(NC(=O)c2cc(C(C)=O)n3ccc(OC)cc23)c(F)c(-c2cnn(C)c2)c1 |  | 3.3 °C | > 50000 nM | 
10 | COc1ccn2c(C(C)=O)cc(C(=O)Nc3cc(C=O)cc(-c4cnn(C)c4)c3F)c2c1 | 13 nM | 5.4 °C | 17400 nM | 
11 | CC(=O)c1cc(C(=O)Nc2cc(CO)cc(-c3cnn(C4CC4)c3)c2F)c2cc(O)ccn12 | 24.8 nM | 14.1 °C | 29000 nM | 
12 | COc1ccn2c(C(C)=O)cc(C(=O)Nc3cc(C(F)(F)F)cc(-c4cnn(C)c4)c3F)c2c1 |  | 2.7 °C | > 50000 nM | 
13 | CC(=O)c1cc(C(=O)Nc2cc(CO)cc(-c3cnn(C)c3)c2F)c2cc(C)ccn12 | 14 nM | 6.3 °C | > 50000 nM | 
14 | CC(=O)c1cc(C(=O)Nc2cc(CO)cc(-c3cnn(C)c3)c2F)c2cc(CN)ccn12 | 55.6 nM | 8.7 °C | 13400 nM | 
15 | COc1ccn2c(C(C)=O)cc(C(=O)Nc3cc(C(N)=O)cc(-c4cnn(C)c4)c3F)c2c1 |  | 2.4 °C |  | 
16 | COc1ccn2c(C(C)=O)cc(C(=O)Nc3cc(CO)cc(-c4cnn(C)c4)c3F)c2c1 | 12 nM | 8.4 °C | 9570 nM | 
17 | CC(=O)c1cc(C(=O)Nc2cc(C(C)O)cc(-c3cnn(C4CC4)c3)c2F)c2cc(O)ccn12 (stereo not drawn) | 79 nM | 12 °C | 42000 nM | 
18 | CC(=O)c1cc(C(=O)Nc2cc(CO)cc(-c3cnn(C)c3)c2F)c2cc(OCc3ccccc3)ccn12 |  | 3.9 °C | 49700 nM | 
19 | CC(=O)c1cc(C(=O)Nc2cc(C(C)O)cc(-c3cnn(C4CC4)c3)c2F)c2cc(OC(=O)N(C)C)ccn12 (stereo not drawn) | 26.2 nM | 10 °C | 9090 nM | 
20 | COc1ccn2c(C(C)=O)cc(C(=O)Nc3cc(C(=O)O)cc(-c4cnn(C)c4)c3F)c2c1 | 9.8 nM | 11.4 °C |  | half-life at 1 µM [4]: > 120 min; remaining at 0.75 h, 1 µM [25]: 100%; Kd [22]: 30 nM
21 | CC(C)NCC(O)COc1ccc(CC(N)=O)cc1 (stereo not drawn) [ATENOLOL] |  |  |  | recovery at 2 h, 10 µM [26]: 94.2%; recovery at 2 h, 10 µM [27]: 94.8%
22 | C[C@H]1O[C@@H](O[C@H]2[C@@H](O)C[C@H](O[C@H]3[C@@H](O)C[C@H](O[C@H]4CC[C@@]5(C)[C@H](CC[C@@H]6[C@@H]5C[C@@H](O)[C@]5(C)[C@@H](C7=CC(=O)OC7)CC[C@]65O)C4)O[C@@H]3C)O[C@@H]2C)C[C@H](O)[C@@H]1O [DIGOXIN] |  |  |  | recovery at 2 h, 10 µM [26]: 92.7%; Papp A→B at 2 h, 10 µM [28]: 1.26 ×10⁻⁶ cm/s
23 | CC(=O)c1cc(C(=O)Nc2cc(CO)cc(-c3cnn(C)c3)c2F)c2cc(OC(=O)C(C)(C)C)ccn12 | 42 nM | 6 °C | 29600 nM | 
24 | CC(=O)c1cc(C(=O)Nc2cc(CO)cc(-c3cnn(C)c3)c2F)c2cc(O)ccn12 |  | 12.6 °C | 34200 nM | Kd [22]: 44 nM
25 | CCc1ccn2c(C(C)=O)cc(C(=O)Nc3cc(CO)cc(-c4cnn(C)c4)c3F)c2c1 | 21.8 nM | 6.3 °C | 50000 nM | 
26 | COc1ccn2c(C(C)=O)cc(C(=O)Nc3cc(F)cc(-c4cnn(C)c4)c3F)c2c1 | 69.6 nM | 6.6 °C | > 50000 nM | 
27 | CC(=O)c1cc(C(=O)Nc2cc(CO)cc(-c3cnn(C4CC4)c3)c2F)c2cc(N)ccn12 | 2.96 nM | 10.5 °C | 8660 nM | 
28 | CC(C)C(=O)c1cc(C(=O)Nc2cc(CO)cc(-c3cnn(C)c3)c2F)c2cc(O)ccn12 |  | 1.8 °C | 37000 nM | 
29 | COc1ccc2c(c1)c(C(=O)Nc1cc(C(=O)O)cc(-c3cnn(C)c3)c1F)cn2C(C)=O | 178 nM |  |  | half-life at 1 µM [4]: 13.1 min; remaining at 0.75 h, 1 µM [25]: 7.7%; CLhep predicted at 1 µM [5]: 42.7 mL/min/kg; hepatic extraction ratio at 0.75 h, 1 µM [29]: 0.774; CLint scaled at 1 µM [6]: 189 mL/min/kg; Kd [22]: 165 nM
